Measurements from article PMC5555576, “Selective small-chemical inhibitors of protein arginine methyltransferase 5 with anti-lung cancer activity” (PLoS ONE, 2017).
“And” between values parts separate entries of the source, which are not always exact repeats. Equal values may be shown once. Read-outs that look alike come from different tables or passages of the source.

Columns and labels:
[1] = biological target: T1, PRMT5 (Homo sapiens, UniProt O14744); assay: Radioactive methyltransferase assay, PRMT5; type: biochemical
T1 construct: His6; made in house; host or cells: E. coli BL21(ED3) [sic]
Protocol: Methylation reactions were performed as previously described with a few modifications. Reaction mixtures (40 μl) containing 1.2 μg of PRMT5, 98 ng of PRMT1 or 98 ng of PRMT3; 2 μg of SmD3 or histones; 1 μCi of S-[methyl-^3H]adenosylmethionine (H^3-AdoMet; PerkinElmer); and 5 μM AdoMet were incubated in 50 mM Tris-HCl (pH 7.5)–1 mM EGTA–1 mM EDTA at 30°C for 2 h. Reaction mixtures (20 μl) were boiled in 5 μl of 5x SDS sample buffer and separated on a 15% polyacrylamide gel. Gels were fixed for 30 min in 40% methanol–10% acetic acid, incubated in 20 ml of Amplify (Amersham Life Science) for 10 min, dried and exposed to X-ray film at -80°C. IC50 was calculated by linear regression analysis of percent inhibition. The other half (20 μl) of each reaction mixture was spread onto DE81 chromatography paper discs (Whatman). The paper discs were washed 4 times with 50 mM NaHCO3 and dried. The amounts of methylated products were quantified by liquid scintillation.
In vitro methylation reactions were performed with recombinant PRMT5 (1.2 μg), PRMT1 ([…]) or PRMT3 (89 ng); [H^3]-AdoMet; and different substrates in the presence of identified compounds. […] The recombinant SmD3 (2 μg) was used as the substrate in the absence (lane 2) or presence of 1, 10 or 100 μM compounds as indicated. Reaction mixtures were separated on an SDS–15% polyacrylamide gel and the gel was dried under vacuum and exposed to film. […] Recombinant histones H4 or H2A (1 μg) were used as substrates of PRMT5 in the methylation assay in the absence or presence of 100 μM compounds as indicated. Reaction mixtures were spread onto DE81 chromatography paper discs. After a wash, the amounts of methylated products on discs were quantified by liquid scintillation. […] PRMT1 was incubated with purified histones (1 μg) or recombinant E2F1 (1 μg) as substrates in the absence (lane 2) or presence of 100 μM compounds as indicated. Reaction mixtures were separated on an SDS–15% polyacrylamide gel and the gel was dried and exposed to film.

[2] = test system: PC14 cells; assay: Cell growth by cell counting, PC14; type: cell-based; conditions: 2 days post treatment
Protocol: (§1) Lung cancer A549 (ATCC) and PC14 (ATCC) cells were cultured in minimum essential medium (Cellgro) with 10% (v/v) fetal bovine serum (FBS) (HyClone), 2% vitamins, 1% L-glutamine, 1% non-essential amino acids and 1% sodium pyruvate. For the treatment with identified compounds, cells (2, 000 cells/well) were seeded in 24-well plates in the medium containing 2% FBS. The fresh medium containing identified compounds was added 24 hours later. Cells were cultured for various times in a CO2 incubator and the cell numbers were counted. Each experiment was performed in triplicate.
(§2) A, Lung cancer A549 cells were cultured in the presence of various concentrations (μM) of identified compounds and growth inhibition was determined by cell counting at various time points. B, Lung cancer PC14 cells were cultured in the presence of DMSO or various concentrations of identified compounds and growth inhibition was determined by cell counting 2 days post the compound treatment. C, The serum concentrations of compound C9 after oral administration. Mice were sacrificed and blood samples were collected immediately before (0 h) and at 2, 4, 6 and 8h after compound administration.

[3] = test system: A549 cells; assay: BrdU incorporation assay; type: cell-based; conditions: 20 μM, 2 days
Protocol: A549 cells were infected with the lentivirus expressing NT or PRMT5 shRNA. A549 cells were grown in the presence of DMSO or compound C5, C9 or C11 (20 μM) for 2 days. A, Bromodeoxyuridine (BrdU) (BD Biosciences) incorporation assay. Cells were plated on a Chamber slide (BD falcon) and cultured in the presence of 10 μM BrdU for 4 h. The BrdU-positive cells (brown) were detected by immunostaining with the monoclonal anti-BrdU antibody (BD Biosciences) and observed under a microscope. B, Percentage of BrdU-positive cells in control, PRMT5-silencing or compound treated cells. The results represent the means of three independent experiments ± the standard deviation. ***, P<0.001. (TIF) Click here for additional data file.

[4] = test system: A549 cells; assay: Cell growth by cell counting, A549; type: cell-based; conditions: for A549 cell growth inhibition: various concentrations and time points
Protocol: as §1, §2
Fig 8 The C9 analogue has improved PRMT5-inhibitory efficacy and oral drug availability. A, The chemical structure of the C9 analogue. B, Compound C9a inhibited methylation of SmD3 by PRMT5. The recombinant SmD3 (2 μg) was used as the substrate in the absence (lane 5) or presence of 1, 10 or 100 μM compounds as indicated. […] C, C9a has improved efficacy to inhibit lung cancer growth. A549 cells were cultured in the presence of various concentrations of C9 or C9a and growth inhibition was determined by cell counting 2 days post the compound treatment. […] Male BALB/c mice were randomized and administrated C9a by oral gavage and compound concentrations in blood samples were determined.

[5] = methylation of SmD3 by PRMT5, Table 1 prints no unit, μM, read-out: IC50

T1 sequence (O14744 whole entry): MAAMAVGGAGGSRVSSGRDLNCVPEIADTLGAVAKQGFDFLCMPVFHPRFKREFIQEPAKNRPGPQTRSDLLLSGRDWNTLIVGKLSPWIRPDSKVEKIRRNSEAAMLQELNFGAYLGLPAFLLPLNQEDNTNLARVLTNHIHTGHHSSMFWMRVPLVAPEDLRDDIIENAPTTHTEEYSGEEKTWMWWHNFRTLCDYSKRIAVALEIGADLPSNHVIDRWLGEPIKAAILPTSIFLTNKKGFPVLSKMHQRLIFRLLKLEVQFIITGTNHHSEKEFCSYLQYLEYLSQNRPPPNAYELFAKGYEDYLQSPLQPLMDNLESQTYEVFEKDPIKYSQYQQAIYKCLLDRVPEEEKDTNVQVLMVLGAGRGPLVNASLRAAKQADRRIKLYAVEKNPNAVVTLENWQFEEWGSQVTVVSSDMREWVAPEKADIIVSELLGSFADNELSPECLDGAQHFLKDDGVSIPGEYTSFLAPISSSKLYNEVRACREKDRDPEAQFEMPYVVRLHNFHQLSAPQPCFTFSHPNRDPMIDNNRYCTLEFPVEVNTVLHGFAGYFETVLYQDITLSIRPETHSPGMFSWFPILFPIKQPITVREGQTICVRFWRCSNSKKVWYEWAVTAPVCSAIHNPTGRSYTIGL

Row | IC50 [1, 5] | IC50 ([1]; wild type PRMT5, SmD3 substrate, Fig 4D, read-out: IC50 (μM) PRMT5) | inhibition of PRMT5 activity compared to C9 ([1]; SmD3 substrate, 1, 10 or 100 μM) | SMILES | PC14 cell growth inhibition [2] | cellular proliferation (BrdU) [3] | A549 cell growth inhibition [4] | IC50 ([4]; Homo sapiens, A549 cells) | inhibition of growth of lung cancer cells compared to C9 ([4]; A549 cells, 2 days)
1 | 0.75 µM | 0.8 µM |  | CCn1c(=O)[nH]c2cc(C(=O)Nc3ccc(OC)cc3)ccc2c1=O [Compound C5] | inhibited PC14 cell growth | inhibited proliferation of lung cancer cells | inhibited A549 cell growth in a dosage- and time-dependent manner at sub μM concentrations |  | 
2 | 0.3 µM |  |  | Cn1cc(C(c2ccc(O)c(O)c2O)c2cn(C)c3ccccc23)c2ccccc21 [Compound C11] | inhibited PC14 cell growth | inhibited proliferation of lung cancer cells | inhibited A549 cell growth in a dosage- and time-dependent manner at sub μM concentrations |  | 
3 | 0.7 µM |  | higher efficacy | Nc1cccc(Nc2ncnc3c2cnn3Cc2ccccc2)c1 [Compound C9a] |  |  |  |  | higher efficacy

Row | SMILES | IC50 [1, 5] | IC50 ([1]; wild type PRMT5, SmD3 substrate, Fig 4D, read-out: IC50 (μM) PRMT5) | inhibition of PRMT5 activity compared to C9 ([1]; SmD3 substrate, 1, 10 or 100 μM) | PC14 cell growth inhibition [2] | cellular proliferation (BrdU) [3] | A549 cell growth inhibition [4] | IC50 ([4]; Homo sapiens, A549 cells) | inhibition of growth of lung cancer cells compared to C9 ([4]; A549 cells, 2 days)
4 | COc1ccc(Nc2ncnc3c2cnn3Cc2ccc(C)cc2)cc1 [Compound C9] | ~6 µM and 6 µM |  |  | inhibited PC14 cell growth | inhibited proliferation of lung cancer cells | inhibited A549 cell growth in a dosage- and time-dependent manner at sub μM concentrations | ~1000 nM | 
